Assay results published in US20080051429A1, “USE OF 4-AMINO-PIPERIDINES FOR TREATING SLEEP DISORDERS” (priority 2006, published 2008).
Counter-ions that a name gives are not always drawn. Like-named read-outs stand apart in the source and are kept apart here.

Biological target: T1, 5-HT2A receptor (Homo sapiens, UniProt P28223)
T1 construct: expressed in transfected cells; host or cells: NIH3T3 cells, pSI expression vector
Assay: R-SAT functional receptor assay
Assay type: cell-based
Conditions: for Emax: 120 h
Protocol: The functional receptor assay, Receptor Selection and Amplification Technology (R-SAT), was used (with minor modifications from that previously described U.S. Pat. No. 5,707,798) to screen compounds for efficacy at the 5-HT2A receptor. Briefly, NIH3T3 cells were grown in 96 well tissue culture plates to 70-80% confluence. Cells were transfected for 12-16 hours with plasmid DNAs using superfect (Qiagen Inc.) as per manufacture's protocols. R-SAT's were generally performed with 50 ng/well of receptor and 20 ng/well of Beta-galactosidase plasmid DNA. All receptor and G-protein constructs used were in the pSI mammalian expression vector (Promega Inc) as described in U.S. Pat. No. 5,707,798. The 5HT2A receptor gene was amplified by nested PCR from brain cDNA using the oligodeoxynucleotides based on the published sequence (see Saltzman et. al. Biochem. Biophys. Res. Comm. 181:1469-78 (1991)). Large-scale transfections, cells were transfected for 12-16 hours, then trypsinized and frozen in DMSO. Frozen cells were later thawed, plated at 10,000-40,000 cells per well of a 96 well plate that contained drug. With both methods, cells were then grown in a humidified atmosphere with 5% ambient CO2 for five days. Media was then removed from the plates and marker gene activity was measured by the addition of the beta-galactosidase substrate ONPG (in PBS with 5% NP-40). The resulting colorimetric reaction was measured in a spectrophotometric plate reader (Titertek Inc.)at […]. All data were analyzed using the computer program XLFit (IDBSm). Efficacy is the percent maximal repression compared to repression by a control compound (ritanserin in the case of 5HT2A). pIC50 is the negative of the log(IC50), where IC50 is the calculated concentration in Molar that produces 50% maximal repression.
Briefly, the 5-HT2A receptor, and the alpha subunit of the guanine nucleotide binding protein Gq were transiently transfected into NIH3T3 cells and assayed using the functional receptor assay, Receptor Selection and Amplification Technology (R-SAT) essentially as disclosed in U.S. Pat. No. 5,707,798. Each compound was screened at seven serially diluted concentrations in triplicate. Data were analyzed using least squares fit analysis with GraphPad Prism (San Diego, Calif.), and are reported normalized to percent response.
R-SAT assays (as described in Example 42) were carried out with cells transfected with receptors (listed below) to determine the receptor selectivity profile for compound 26HCH16D. 5HT2A inverse agonist data (IC50 nM; % efficacy) were derived from detailed dose response curves (7 points in triplicate).
(§1) The functional receptor assay, Receptor Selection and Amplification Technology (R-SAT), was used (with minor modifications from that previously described U.S. Pat. No. 5,707,798) to screen compounds for efficacy at the 5-HT2A receptor. The RSAT assay was conducted as described herein.
as §1, with “5,707,798, which is incorporated herein by reference in its entirety)” for “5,707,798)”

[1] = read-out: Percent Efficacy, compared to ritanserin
[2] = Table 3, read-out: pIC50 (converted)
[3] = compared to ritanserin, read-out: 5HT2A % inhibition
[4] = Table 6, read-out: 5HT2A pIC50 (converted)
[5] = Table 5, read-out: 5HT2A pIC50 (converted)

T1 sequence (P28223 whole entry): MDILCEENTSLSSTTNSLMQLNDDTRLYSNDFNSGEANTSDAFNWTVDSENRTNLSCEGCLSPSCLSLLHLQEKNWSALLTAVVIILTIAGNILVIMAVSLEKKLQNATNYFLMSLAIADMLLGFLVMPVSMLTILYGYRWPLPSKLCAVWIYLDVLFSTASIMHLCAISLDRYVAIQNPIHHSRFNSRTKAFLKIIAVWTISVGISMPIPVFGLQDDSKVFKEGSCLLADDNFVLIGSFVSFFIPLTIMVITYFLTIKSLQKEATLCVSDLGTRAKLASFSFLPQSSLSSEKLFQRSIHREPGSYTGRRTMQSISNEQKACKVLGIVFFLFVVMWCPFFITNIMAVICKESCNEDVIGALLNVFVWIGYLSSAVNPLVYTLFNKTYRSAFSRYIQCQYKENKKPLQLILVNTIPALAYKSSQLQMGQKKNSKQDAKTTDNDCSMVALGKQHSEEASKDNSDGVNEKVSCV

COc1ccc(CC(=O)N(Cc2ccc(C)cc2)C2CCN(C)CC2)cc1O [Example 57MBT12B, N-((4-methylphenyl)methyl)-N-(1-methylpiperidin-4-yl)-2-(3-hydroxy-4-methoxyphenyl)acetamide]
Emax [1]: 75%
IC50 [2]: 20 nM

Cc1ccc(CC(=O)N(Cc2ccc(C)cc2)C2CCN(C)CC2)cc1 [Example 57MBT62B, N-((4-methylphenyl)methyl)-N-(1-methylpiperidin-4-yl)-2-(4-methylphenyl)ace tamide hydrochloride]
Emax (read-out: Percent Efficacy): 119%
IC50 [2]: 12.6 nM

COc1ccc(CC(=O)N(CCc2ccc(F)cc2)C2CCN(C)CC2)cc1 [Example 50ELH93A, 2-(4-Methoxyphenyl)-N-(2-4-(fluorophenyl)ethyl)-N-(1-methylpiperidin-4-yl)acetamide]
Emax [1]: 106%
IC50 [2]: 2 nM

COc1ccc(CC(=O)N(Cc2ccc(C)cc2)C2CCN(Cc3ccccc3)C2)cc1 (stereo not shown) [Example 26HCH52, N-((4-Methylphenyl)methyl)-N-(1-(phenylmethyl)pyrrolidin-3-yl)-4-methoxyphenylacetamide]
IC50 (pIC50 (average), inverse agonist): 49 nM
Efficacy (average) (percent maximal repression compared to ritanserin): 98

Cc1ccc(CN(C(=O)Cc2ccc(Cl)cc2)C2CCN(C(C)C)CC2)cc1 [Example 47AKU-7, 2-(4-Chlorophenyl)-N-(4-methylbenzyl)-N-(1-isopropylpiperidin-4-yl)-acetamide]
Emax [1]: 120%
IC50 [2]: 7.94 nM

Cc1ccc(CN(C(=O)NCc2ccccc2)C2CCNCC2)cc1 [Example 26HCH65, N-((4-Methylphenyl)methyl)-N-(piperidin-4-yl)-N′-phenylmethylcarbamide]
Emax [1]: 103%
IC50 [2]: 6.31 nM

Cc1ccc(CN(C(=O)Cc2ccc(C(C)C)cc2)C2CCN(C)CC2)cc1 [Example 57MBT70-3D, N-((4-methylphenyl)methyl)-N-(1-methylpiperidin-4-yl)-2-(4-(2-propyl)phenylacetamide hydrochloride]
Emax [1]: 87%
IC50 (pIC50, Table 3): 1.26 nM

COc1ccc(CC(=O)N(Cc2ccc(C)cc2)C2CCN(CCCn3c(=O)[nH]c4ccccc43)CC2)cc1 [Example 50ELH89, 2-(4-Methoxyphenyl)-N-(4-methylbenzyl)-N-(1-(3-(1,3-dihydro-2H-benzimidazol-2-one-1-yl)propyl)piperidine-4-yl)acetamide]
Emax (read-out: Percent Efficacy): 111%
IC50 (pIC50, Table 3): 0.2 nM

COc1ccc(CC(=O)N(Cc2ccc(C)cc2)C2CCN(CC3CCCCC3)CC2)cc1 [Example 6HCH79-6, N-(1-(Cyclohexylmethyl)piperidin-4-yl)-N-((4-methylphenyl)methyl)-4-methoxy phenylacetamide]
Percent Efficacy: 83%

Cc1ccc(CN(C(=O)NCc2ccccc2)C2CCN(C)CC2)cc1 [Example 47AKU-22, N-(4-Methylbenzyl)-N-(1-methylpiperidin-4-yl)-N′-benzyl-carbamide]
Emax [1]: 117%
IC50 [2]: 12.6 nM

CC(C)COc1ccc(CN2C(=O)OC3(CCNCC3)C2Cc2ccc(F)cc2)cc1 (stereo not shown) [Example 69NLS81, 4-(4-Fluorobenzyl)-3-(4-isobutoxybenzyl)-1-oxa-3,8-diaza-spiro[4.5]decan-2-one, hydrochloride]
Emax [3]: 85%
IC50 [4]: 5.01 nM

CC(C)COc1ccc(CC(=O)N(Cc2ccc(F)cc2)C2CCN(CCC3OC(C)CC(C)O3)CC2)cc1 (stereo not shown) [Example 118AF37-88, N-{1-[2-(4,6-Dimethyl-1,3-dioxan-2-yl)ethyl]piperidin-4-yl}-N-(4-fluorobenzyl)-2-(4-isobutoxyphenyl)acetamide, oxalate]
Emax (read-out: 5HT2A % INH): 105%
IC50 [5]: 0.631 nM

CC(C)COc1ccc(CC(=O)N(Cc2ccc(F)cc2)C2CCN(CCCN3CCCC3=O)CC2)cc1 [Example 098AF76-65, N-(4-Fluorobenzyl)-2-(4-isobutoxyphenyl)-N-{1-[3-(2-oxo-pyrrolidin-1-yl)propyl]piperidin-4-yl}acetamide, hydrochloride]
Emax (read-out: 5HT2A % INH, compared to ritanserin): 100%
IC50 [5]: 0.794 nM

Cc1ccc(CC2N(Cc3ccc(OC(F)(F)F)cc3)C(=O)OC23CCN(C)CC3)cc1 (stereo not shown) [Example 69NLS21, 8-Methyl-4-(4-methylbenzyl)-3-(4-trifluoromethoxybenzyl)-1-oxa-3,8-diaza-spiro[4.5]decan-2-one, hydrochloride]
Emax [3]: 83%
IC50 [4]: 0.794 nM

CCN1CCC2(CC1)OC(=O)N(Cc1ccc(OCC(C)C)cc1)C2Cc1ccc(F)cc1 (stereo not shown) [Example 38-PH20, 4-(4-Fluorobenzyl)-3-(4-isobutoxybenzyl)-8-ethyl-1-oxa-3,8-diaza-spiro[4.5]decan-2-one, hydrochloride]
Emax [3]: 100%
IC50 [4]: 0.501 nM

COc1ccc(CC(=O)N(Cc2ccc(C)cc2)C2CCN(C3CCC3)CC2)cc1 [Example 47AKU-20, 2-(4-Methoxyphenyl)-N-(4-methylbenzyl)-N-(1-cyclobutylpiperidin-4-yl)acetamide]
Emax [1]: 120%
IC50 [2]: 10 nM
